Test results: US20110135575A1, “METALLOPROTEIN MRI CONTRAST AGENTS AND RELATED METHODS” (Massachusetts Institute of Technology, priority 2007, published 2011)

What was measured:
BM3 protein = BM3 protein (Priestia megaterium, UniProt P14779); experiment: biochemical
Description: In another example, a spectroscopic assay based on analyte-induced absorbance shifts was employed to estimate binding affinities and ligand selectivity of the mutant proteins in the above Examples. […] This method allowed both an estimation of an analyte's dissociation constant and a determination of selectivity.

[1] = T1 relaxivity / T1-weighted images in the presence of melatonin; type: biochemical; details: Example 3, FIGS. 8-9
[2] = T1 relaxivity by MRI in the presence of dopamine; details: Example 3, FIGS. 8-9
Description: To determine the extent of that the interaction between exchanging water molecules at the axial site and the heme iron atom promotes T1 relaxation in aqueous solutions, a spin echo MRI pulse sequence was used to measure the proton relaxation rate as a function of protein concentration in phosphate buffered saline solution (PBS); the slope of this relationship (T1 relaxivity, or r1) provided a standard measure of the strength of a contrast agent.
Samples (60-100 microliters) were arrayed into microtiter plates and placed in a 40-cm-bore Bruker (Billerica, Mass.) Avance 4.7 T MRI scanner, equipped with a 10 cm inner diameter birdcage resonator radiofrequency coil and 26 G/cm triple axis gradients. Unused wells of the microtiter plates were filled with phosphate buffered saline, and imaging was performed on a 2-mm slice through the sample. A T1-weighted spin echo pulse sequence was used; echo time (TE) was 10 ms, and repetition times (TR) ranged from 77 ms to 5 s. Data matrices of 512×128 points were acquired and zero-filled to 1024×512 points, where the second dimension corresponds to the phase encoding direction. Images were reconstructed and analyzed using custom routines running in Matlab. Relaxation rates and relaxivities reported here were calculated by exponential fitting to the image data.

Protocol for PC12 cells: PC12 cells were grown in suspension in F-12K medium supplemented with 15% horse serum and 2.5% fetal bovine serum (ATCC, Manassas, Va.). In preparation for DA release experiments, 50 mL cell cultures were incubated for one hour in medium supplemented with 1 mM DA and 1 mM ascorbic acid, pelleted and washed twice with Locke's buffer (154 mM NaCl, 5.6 mM KCl, 3.6 mM NaHCO3, 2.3 mM CaCl2, 5.6 mM D-glucose, and 5 mM HEPES, pH 7.4). Washed PC12 cell pellets were resuspended in 200 microliters of Locke's buffer, with or without 32 micromolar BM3h-B7 sensor and containing either 5.6 or 59.6 mM K^+ (the low K^+ condition was osmotically balanced with Na^+). After 30-60 minutes incubation at room temperature, cells were pelleted and the supernatant was imaged in an MRI scanner as described above.

| Molecule | DA concentration by ELISA, stimulated cells (PC12 cells; K+-stimulated PC12 cells) [µM] | DA concentration by ELISA, control cells (PC12 cells; Na+ control PC12 cells) [µM] | Kd (BM3 protein) [µM] | T1 relaxivity response to melatonin [1] | relative T1 relaxivity response to DA versus 5-HT [2] |
| --- | --- | --- | --- | --- | --- |
| NCCc1ccc(O)c(O)c1 [dopamine] | 54 ± 9 | 13 ± 2 | ~1000 |  |  |
| NCCc1c[nH]c2ccc(O)cc12 [serotonin] |  |  | ~1000 |  |  |
| wild type BM3: wild type cytochrome P450-BM3 from Bacillus megaterium, provided by Frances Arnold's laboratory (protein, UniProt P14779 1-1049, looked up) Bifunctional cytochrome …: MTIKEMPQPKTFGELKNLPLLNTDKPVQALMKIADELGEIFKFEAPGRVTRYLSSQRLIKEACDESRFDKNLSQALKFVRDFAGDGLFTSWTHEKNWKKAHNILLPSFSQQAMKGYHAMMVDIAVQLVQKWERLNADEHIEVPEDMTRLTLDTIGLCGFNYRFNSFYRDQPHPFITSMVRALDEAMNKLQRANPDDPAYDENKRQFQEDIKVMNDLVDKIIADRKASGEQSDDLLTHMLNGKDPETGEPLDDENIRYQIITFLIAGHETTSGLLSFALYFLVKNPHVLQKAAEEAARVLVDPVPSYKQVKQLKYVGMVLNEALRLWPTAPAFSLYAKEDTVLGGEYPLEKGDELMVLIPQLHRDKTIWGDDVEEFRPERFENPSAIPQHAFKPFGNGQRACIGQQFALHEATLVLGMMLKHFDFEDHTNYELDIKETLTLKPEGFVVKAKSKKIPLGGIPSPSTEQSAKKVRKKAENAHNTPLLVLYGSNMGTAEGTARDLADIAMSKGFAPQVATLDSHAGNLPREGAVLIVTASYNGHPPDNAKQFVDWLDQASADEVKGVRYSVFGCGDKNWATTYQKVPAFIDETLAAKGAENIADRGEADASDDFEGTYEEWREHMWSDVAAYFNLDIENSEDNKSTLSLQFVDSAADMPLAKMHGAFSTNVVASKELQQPGSARSTRHLEIELPKEASYQEGDHLGVIPRNYEGIVNRVTARFGLDASQQIRLEAEEEKLAHLPLAKTVSVEELLQYVELQDPVTRTQLRAMAAKTVCPPHKVELEALLEKQAYKEQVLAKRLTMLELLEKYPACEMKFSEFIALLPSIRPRYYSISSSPRVDEKQASITVSVVSGEAWSGYGEYKGIASNYLAELQEGDTITCFISTPQSEFTLPKDPETPLIMVGPGTGVAPFRGFVQARKQLKEQGQSLGEAHLYFGCRSPHEDYLYQEELENAQSEGIITLHTAFSRMPNQPKTYVQHVMEQDGKKLIELLDQGAHFYICGDGSQMAPAVEATLMKSYADVHQVSEADARLWLQQLEEKGRYAKDVWAG |  |  |  | minimal response | greater response to DA |
